{"source": "patent EP4806435A1", "about": "“DIHYDROCHROMENE-DERIVATIVE-CONTAINING THERAPEUTIC AGENT FOR CANCER” (Sumitomo Pharma Co., Ltd., priority 2023, dated 2025)", "key": {"U-87 cells": {"system": "U-87 cells", "experiment": "Cytotoxicity assay of metabolites under sphere culture conditions (ATP)", "format": "cell-based", "details": "Homo sapiens, U-87 MG, 168 h, 7 days in sphere medium, read-out: IC50 (cytotoxicity, cell viability by ATP)", "procedure": "U-87 cells were cultured for 7 days in sphere medium in the presence of metabolites M2, M4, and M5, respectively. After culture, cellular ATP levels were quantified as an indicator of cell viability, and cell viability was calculated in the same manner as in Example 12 to compare cytotoxicity."}, "[1]": {"system": "U-87 cells (IDH1 wild-type)", "experiment": "Cytotoxicity, sphere culture with LDL, combination with ezetimibe (ATP)", "format": "cell-based, human", "details": "ezetimibe at 3.3, 10, or 30 µM; 7 days; LDL 5 µg/mL", "procedure": "U-87 cells were cultured for 7 days in sphere medium supplemented with LDL at a concentration of 5 µg/mL, with either ezetimibe (a cholesterol absorption inhibitor) added at 3.3, 10, or 30 µM, Compound 1 added at 1 µM, or a combination of both agents. Cell viability was calculated in the same manner as in Example 12, and the cytotoxic effects of each treatment were compared between single-agent and combination conditions."}, "non-human primate": {"system": "non-human primate", "experiment": "4-week non-human primate toxicity study (GLP)", "format": "in vivo", "procedure": "(§1) The initial starting dose of 20 mg/day (expressed as the present compound) was determined in accordance with the ICH S9 guideline of International Council for Harmonisation of Technical Requirements for Pharmaceuticals for Human Use (ICH). Based on a 4-week mouse toxicity study conducted in compliance with Good Laboratory Practice (GLP), the dose causing severe toxicity in 10% of the test animals (STD10) was determined to be 50 mg/kg. Applying a safety factor of 10 and interspecies scaling, the starting dose for this first-in-human (FIH) study was calculated to be 0.4 mg/kg, corresponding to a fixed dose of 24 mg for a 60-kg human. In a 4-week non-human primate toxicity study conducted in compliance with Good Laboratory Practice (GLP), the highest non-severely toxic dose (HNSTD) was determined to be 7.5 mg/kg. Applying a safety factor of 6 and interspecies scaling, the starting dose in humans was estimated to be 0.4 mg/kg, corresponding to a fixed dose of 24 mg. The final recommended starting dose for the first-in-human (FIH) study was rounded to 20 mg/day."}, "U-87 GBM xenografts": {"system": "U-87 GBM xenografts", "experiment": "Tumor shrinkage in mice bearing U-87 GBM xenografts", "format": "in vivo"}, "mouse": {"system": "mouse", "experiment": "4-week mouse toxicity study (GLP)", "format": "in vivo", "procedure": "as §1"}}}
{"compound": "CC1(C)Oc2cc(Cl)ccc2[C@@H]2OCC3(CCN(CCNC(=O)CNC=O)CC3)C[C@H]21", "note": "[Compound M2, N-2-[(4'aR,10'bR)-8'-chloro-5',5'-dimethyl-4'a,10'b-dihydro-2'H,4'H,5'H-spiro[piperidine-4,3'-pyrano[3,2-c][1]benzopyran]-1-yl]ethyl-N^2-formylglycinamide]", "values": [{"measurement": "IC50", "setting": "U-87 cells", "value": 3600, "unit": "nM"}]}
{"compound": "CC1(C)Oc2cc(Cl)ccc2[C@@H]2OCC3(CCNCC3)C[C@H]21", "note": "[Compound M4]", "values": [{"measurement": "IC50", "setting": "U-87 cells", "value": 1600, "unit": "nM"}]}
{"compound": "CC1(C)Oc2cc(Cl)ccc2[C@@H]2OCC3(CCN(CCO)CC3)C[C@H]21", "note": "[Compound M5, 2-[(4'aR,10'bR)-8'-chloro-5',5'-dimethyl-4'a,10'b-dihydro-2'H,4'H,5'H-spiro[piperidine-4,3'-pyrano[3,2-c][1]benzopyran]-1-yl]ethan-1-ol]", "values": [{"measurement": "IC50", "setting": "U-87 cells", "value": 2100, "unit": "nM"}]}
{"compound": "O=C1[C@H](CC[C@H](O)c2ccc(F)cc2)[C@@H](c2ccc(O)cc2)N1c1ccc(F)cc1", "note": "[ezetimibe, reference compound]", "values": [{"measurement": "cytotoxicity, single agent", "setting": "[1]", "value": "low cytotoxicity"}]}
{"compound": "CC1(C)Oc2cc(Cl)ccc2[C@@H]2OCC3(CCN(CCn4ccnc4)CC3)C[C@H]21", "note": "[the present compound, (4'aR,10'bR)-8'-chloro-1-[2-(1H-imidazol-1-yl)ethyl]-5',5'-dimethyl-4'a,10'b-dihydro-2'H,4'H,5'H-spiro[piperidine-4,3'-pyrano[3,2-c][1]benzopyran]]", "values": [{"measurement": "highest non-severely toxic dose (HNSTD)", "setting": "non-human primate", "value": 7.5, "unit": "mg/kg"}, {"measurement": "minimum pharmacologically active dose in humans (human equivalent dose, HED)", "setting": "U-87 GBM xenografts; HED of 3 mg/kg in mice bearing U-87 GBM xenografts", "value": 15, "unit": "mg"}, {"measurement": "dose at which a consistent tumor shrinkage effect was observed", "setting": "U-87 GBM xenografts; mice bearing U-87 GBM xenografts", "value": 3, "unit": "mg/kg"}, {"measurement": "dose causing severe toxicity in 10% of the test animals (STD10)", "setting": "mouse", "value": 50, "unit": "mg/kg"}]}
